Measured values reported in patent US20170273922A1, “UREA AND BIS-UREA BASED COMPOUNDS AND ANALOGUES THEREOF USEFUL IN THE TREATMENT OF ANDROGEN RECEPTOR MEDIATED DISEASES OR DISORDERS” (THE ROYAL INSTITUTION FOR THE ADVACEMENT OF LEARNING/MCGILL …, priority 2014, published 2017).

Experiments:
[1] = target: T1, AR-v7 in LNCaP cells (Homo sapiens, UniProt P10275); experiment: PSA-luc reporter assay in LNCaP cells transiently transfected with pIRES-AR-v7; conditions: 24 h
T1 sequence (P10275 1-644 isoform P10275-3): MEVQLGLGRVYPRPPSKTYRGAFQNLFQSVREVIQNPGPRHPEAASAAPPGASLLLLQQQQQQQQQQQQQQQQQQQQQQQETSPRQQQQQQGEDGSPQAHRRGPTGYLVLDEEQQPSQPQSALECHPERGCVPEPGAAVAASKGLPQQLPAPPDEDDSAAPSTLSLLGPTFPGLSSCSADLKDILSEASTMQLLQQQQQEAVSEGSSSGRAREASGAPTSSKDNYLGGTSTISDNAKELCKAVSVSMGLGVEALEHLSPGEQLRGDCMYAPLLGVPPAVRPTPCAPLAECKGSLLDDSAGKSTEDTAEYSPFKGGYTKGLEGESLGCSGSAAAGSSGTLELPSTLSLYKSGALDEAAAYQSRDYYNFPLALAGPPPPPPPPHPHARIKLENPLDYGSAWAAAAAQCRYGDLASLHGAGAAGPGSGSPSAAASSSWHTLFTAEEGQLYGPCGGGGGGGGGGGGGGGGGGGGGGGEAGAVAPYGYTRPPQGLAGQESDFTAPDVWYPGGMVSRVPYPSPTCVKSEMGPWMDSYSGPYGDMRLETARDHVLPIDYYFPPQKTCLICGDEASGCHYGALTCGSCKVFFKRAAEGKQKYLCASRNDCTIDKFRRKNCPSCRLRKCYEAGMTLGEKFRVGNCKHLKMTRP
Experimental: NT, LNCaP cells were transiently transfected with pIRES vector, PSA-luc and pRL-TK. […] Cells were then transiently transfected with PSA-Luc and pRL-TK and exposed to DMSO or compounds for 24 h, in triplicate.

[2] = MTT assay (cytotoxicity), DU145 cells; type: cell-based; conditions: human, DU145 cells, Table 4.1
How it was run: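 Viable cell number was determined by MTT after cells in RPMI 1640 plus 10% FBS had been treated for 72 h with compounds at set concentrations, DMSO serving as vehicle control.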

[3] = MTT assay (cytotoxicity), MCF-7 cells; type: cell-based; conditions: human, 72 h treatment, Table 6.1
Experimental: (§1) MTT assays: LNCaP, 22Rv1, Du145, H1975, A549, MB231 and MCF-7 cells are maintained in RPMI 1640 supplemented with 10% FBS. Cells were seeded at a density of 6-7×10^3 cells per well in 96-well plates. After overnight incubation, cells in fresh RPMI 1640 supplemented with 10% FBS were exposed to DMSO vehicle control or test compounds at designated concentrations for 72 h. Viable cells were evaluated by MTT assays. Experiments were performed in triplicate and repeated at least twice.

[4] = MTT assay (cytotoxicity), A549 cells; type: cell-based; conditions: human, 72 h treatment, Table 6.1
Experimental: as §1

[5] = MTT assay (cytotoxicity), MB231 cells; type: cell-based; conditions: human, 72 h treatment, Table 6.1
Experimental: as §1

[6] = MTT assay (cytotoxicity), H1975 cells; type: cell-based; conditions: human, 72 h treatment, Table 6.1
Experimental: as §1

[7] = MTT assay (72 h), liver hepatocellular carcinoma cell line of Table 6.1; type: cell-based; conditions: human, HepG2 cells (liver hepatocellular carcinoma), 72 h treatment, read-out: Cytotoxicity (IC50, μM) HepG2

activity in LNCaP cells with forced expression of AR-v7 (PSA-luc) [1]	melting point [°C]	Structure (SMILES)	IC50 at 72 h [2] [µM]	IC50 at 72 h [3] [µM]	IC50 at 72 h [4] [µM]	IC50 at 72 h [5] [µM]	IC50 at 72 h [6] [µM]	IC50 at 72 h [7] [µM]
remain active	213 to 215	O=C(N/C=C/c1cccc(C(F)(F)F)c1)Nc1ccncn1 [Compound 562]	–	–	–	–	–	–
–	–	O=C(Nc1ccc(Br)nc1)Nc1cc(C(F)(F)F)cc(C(F)(F)F)c1 [Compound 566]	1.7	–	–	–	–	–
remain active	–	O=C(Nc1cccc(C(F)(F)F)c1)Nc1ccc(NC(=O)c2ccccc2F)c(C(F)(F)F)c1 [Compound 746]	–	2.5	2.4	4.6	2.5	1.2
